{"source": "patent US12077503B2", "about": "“Substituted cyclic amides and their use as herbicides” (FMC CORPORATION, priority 2015, dated 2024)", "format_in_all_cases": "in vivo", "key": {"[1]": {"tested_on": "ducksalad (Heteranthera limosa)", "experiment": "Test B flooded paddy test", "conditions": "Flood, 250 g ai/ha; 0 to 100 scale where 0 is no effect and 100 is complete control; 13 to 15 d", "outline": "(§1)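 Percent control, visually estimated after 13–15 d in the greenhouse on a 0–100 basis, compares treated pots with untreated ones; compound was put into paddy water 3 cm above the soil when plants had two leaves.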"}, "[2]": {"tested_on": "barnyardgrass (Echinochloa crus-galli)", "experiment": "Test B flooded paddy test", "conditions": "Flood, 250 g ai/ha; 0 to 100 scale where 0 is no effect and 100 is complete control; 13 to 15 d", "outline": "as §1"}, "[3]": {"tested_on": "sedge, umbrella (small-flower umbrella sedge, Cyperus difformis)", "experiment": "Test B flooded paddy test", "conditions": "Flood, 250 g ai/ha; 0 to 100 scale where 0 is no effect and 100 is complete control; 13 to 15 d", "outline": "as §1"}, "rice (Oryra sativa)": {"tested_on": "rice (Oryra sativa)", "experiment": "Test B flooded paddy test", "conditions": "Flood, 250 g ai/ha; 0 to 100 scale where 0 is no effect and 100 is complete control; 13 to 15 d", "outline": "as §1"}, "Kochia (Kochia scoparia) [4]": {"tested_on": "Kochia (Kochia scoparia)", "experiment": "Test A preemergence", "outline": "(§2)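 Ratings of 0 (no effect) to 100 (complete control) come from visual comparison with untreated controls roughly 10 d after treatment. Test chemicals, formulated in a non-phytotoxic solvent mixture with surfactant, were applied either as a preemergence directed soil spray on seeded soil or postemergence to one- to two-leaf plants 2 to 10 cm tall.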"}, "[5]": {"tested_on": "ryegrass, Italian (Italian ryegrass, Lolium multiflorum)", "experiment": "Test A preemergence", "outline": "as §2"}, "[6]": {"tested_on": "giant foxtail (Setaria faberii)", "experiment": "Test A preemergence", "outline": "as §2"}, "[7]": {"tested_on": "ragweed (common ragweed, Ambrosia elatior)", "experiment": "Test A preemergence", "outline": "as §2"}, "[8]": {"tested_on": "barnyardgrass (Echinochloa crus-galli)", "experiment": "Test A preemergence", "outline": "as §2"}, "[9]": {"tested_on": "pigweed (Amaranthus retroflexus)", "experiment": "Test A preemergence"}, "[10]": {"tested_on": "Galium (catchweed bedstraw, Galium aparine)", "experiment": "Test A postemergence", "conditions": "postemergence", "outline": "as §2"}, "Kochia (Kochia scoparia) [11]": {"tested_on": "Kochia (Kochia scoparia)", "experiment": "Test A postemergence", "conditions": "postemergence", "outline": "as §2"}, "[12]": {"tested_on": "ryegrass, Italian (Italian ryegrass, Lolium multiflorum)", "experiment": "Test A postemergence", "conditions": "postemergence", "outline": "as §2"}, "[13]": {"tested_on": "giant foxtail (Setaria faberii)", "experiment": "Test A postemergence", "conditions": "postemergence", "outline": "as §2"}, "[14]": {"tested_on": "ragweed (common ragweed, Ambrosia elatior)", "experiment": "Test A postemergence", "conditions": "postemergence", "outline": "as §2"}, "[15]": {"tested_on": "barnyardgrass (Echinochloa crus-galli)", "experiment": "Test A postemergence", "conditions": "postemergence", "outline": "as §2"}, "[16]": {"tested_on": "wheat (Triticum aestivum)", "experiment": "Test A postemergence", "conditions": "postemergence", "outline": "as §2"}, "[17]": {"tested_on": "pigweed (Amaranthus retroflexus)", "experiment": "Test A postemergence", "conditions": "postemergence", "outline": "as §2"}, "[18]": {"tested_on": "blackgrass (Alopecurus myosuroides)", "experiment": "Test A postemergence", "conditions": "postemergence", "outline": "as §2"}, "corn (Zea mays)": {"tested_on": "corn (Zea mays)", "experiment": "Test A postemergence", "conditions": "postemergence", "outline": "as §2"}, "[19]": {"conditions": "125 g ai/ha, preemergence, 0 to 100 scale (0 no effect, 100 complete control)"}, "[20]": {"conditions": "Preemergence, 500 g ai/ha, visual injury approx. 10 d"}, "[21]": {"conditions": "125 g ai/ha, visual injury rating on 0 to 100 scale (0 no effect, 100 complete control), approx. 10 d"}, "[22]": {"conditions": "500 g ai/ha, 0 to 100 scale, 0 no effect, 100 complete control"}}, "data": [{"smiles": "CN1CC(c2ccc(F)cc2)C(C(=O)Nc2cccc(F)c2F)C1=O", "note": "(stereo not drawn) [Compound 438]", "values": [{"measurement": "Plant response rating, Ducksalad", "setting": "[1]", "value": 100}, {"measurement": "Plant response rating, Barnyardgrass", "setting": "[2]", "value": 85}, {"measurement": "Plant response rating, Sedge, Umbrella", "setting": "[3]", "value": 0}, {"measurement": "Plant response rating, Rice", "setting": "rice (Oryra sativa)", "value": 20}, {"measurement": "Plant response rating, Kochia", "setting": "Kochia (Kochia scoparia) [4]; [19]", "value": 70}, {"measurement": "Kochia plant response rating (0 to 100 scale, 0 is no effect, 100 is complete control)", "setting": "Kochia (Kochia scoparia) [4]; [20]", "value": 80}, {"measurement": "Plant response rating, Ryegrass, Italian", "setting": "[5]; [19]", "value": 50}, {"measurement": "Ryegrass, Italian plant response rating (0 to 100 scale, 0 is no effect, 100 is complete control)", "setting": "[5]; [20]", "value": 70}, {"measurement": "Plant response rating, Foxtail, Giant", "setting": "[6]; [19]", "value": 100}, {"measurement": "Foxtail, Giant plant response rating (0 to 100 scale, 0 is no effect, 100 is complete control)", "setting": "[6]; [20]", "value": 100}, {"measurement": "Plant response rating, Ragweed", "setting": "[7]; [19]", "value": 60}, {"measurement": "Ragweed plant response rating (0 to 100 scale, 0 is no effect, 100 is complete control)", "setting": "[7]; [20]", "value": 90}, {"measurement": "Plant response rating, Barnyardgrass", "setting": "[8]; [19]", "value": 90}, {"measurement": "Barnyardgrass plant response rating (0 to 100 scale, 0 is no effect, 100 is complete control)", "setting": "[8]; [20]", "value": 100}, {"measurement": "Plant response rating, Pigweed", "setting": "[9]; [19]", "value": 80}, {"measurement": "Pigweed plant response rating (0 to 100 scale, 0 is no effect, 100 is complete control)", "setting": "[9]; [20]", "value": 90}, {"measurement": "Galium plant response rating", "setting": "[10]; [21]", "value": 40}, {"measurement": "Plant response rating, Galium", "setting": "[10]; [22]", "value": 50}, {"measurement": "Kochia plant response rating", "setting": "Kochia (Kochia scoparia) [11]; [21]", "value": 70}, {"measurement": "Plant response rating, Kochia", "setting": "Kochia (Kochia scoparia) [11]; [22]", "value": 70}, {"measurement": "Ryegrass, Italian plant response rating", "setting": "[12]; [21]", "value": 40}, {"measurement": "Plant response rating, Ryegrass, Italian", "setting": "[12]; [22]", "value": 60}, {"measurement": "Foxtail, Giant plant response rating", "setting": "[13]; [21]", "value": 90}, {"measurement": "Plant response rating, Foxtail, Giant", "setting": "[13]; [22]", "value": 90}, {"measurement": "Ragweed plant response rating", "setting": "[14]; [21]", "value": 0}, {"measurement": "Plant response rating, Ragweed", "setting": "[14]; [22]", "value": 30}, {"measurement": "Barnyardgrass plant response rating", "setting": "[15]; [21]", "value": 90}, {"measurement": "Plant response rating, Barnyardgrass", "setting": "[15]; [22]", "value": 90}, {"measurement": "Wheat plant response rating", "setting": "[16]; [21]", "value": 30}, {"measurement": "Plant response rating, Wheat", "setting": "[16]; [22]", "value": 70}, {"measurement": "Pigweed plant response rating", "setting": "[17]; [21]", "value": 0}, {"measurement": "Plant response rating, Pigweed", "setting": "[17]; [22]", "value": 60}, {"measurement": "Blackgrass plant response rating", "setting": "[18]; [21]", "value": 40}, {"measurement": "Plant response rating, Blackgrass", "setting": "[18]; [22]", "value": 70}, {"measurement": "Corn plant response rating", "setting": "corn (Zea mays); [21]", "value": 0}, {"measurement": "Plant response rating, Corn", "setting": "corn (Zea mays); [22]", "value": 50}]}]}
